For test [1], the system named is HT-29. Kind of test: Antiproliferative activity against human HT-29 cells at 50 uM after 48 to 72 hrs by MTT assay. It is filed as functional, cell-based. (Tetrazolium assays rely on reduction of a dye to a coloured formazan, in cell work by metabolically active cells.)
The test system of test [2] is SH-SY5Y. In words: Cytotoxicity against human SH-SY5Y cells at 50 to 100 uM after 24 to 72 hrs by LDH release assay. It is filed as functional, cell-based. (Release of lactate dehydrogenase indicates damage to the cell membrane.)
The subject of test [3] is HT-29. Kind of test: Antiproliferative activity against human HT-29 cells at 100 uM after 48 hrs by MTT assay. It is filed as functional, cell-based.
Test [4] has as its system HT-29. Kind of test: Antiproliferative activity against human HT-29 cells at 1 to 100 uM after 24 to 72 hrs by cell counting assay. The test is classed as functional, cell-based.
The test system of test [5] is HT-29. In words: Antiproliferative activity against human HT-29 cells at 1 to 100 uM by MTT assay. The test is classed as functional, cell-based. As to conditions: TDE = time-dependent effect.
Test [6] has as its system SH-SY5Y. Kind of test: Antiproliferative activity against human SH-SY5Y cells after 24 to 72 hrs by MTT assay. It is filed as functional, cell-based.
Test [7] relates to HepG2. Kind of test: Antiproliferative activity against human HepG2 cells after 24 to 72 hrs by MTT assay. It is filed as functional, cell-based.
Test [8] concerns HepG2. Kind of test: Cytotoxicity against human HepG2 cells at 50 to 100 uM after 24 to 72 hrs by LDH release assay. The test is classed as functional, cell-based.
Test [9] deals with HT-29. In words: Cytotoxicity against human HT-29 cells at 50 to 100 uM after 24 to 72 hrs by LDH release assay. It is filed as functional, cell-based.
The subject of test [10] is HT-29. In words: Cytotoxicity against human HT-29 cells assessed as cell death at 1 to 100 uM after 24 to 72 hrs by trypan blue dye exclusion assay. The test is classed as functional, cell-based.
Test [11] has as its system HepG2. Kind of test: Cytotoxicity against human HepG2 cells assessed as cell death at 1 to 100 uM after 24 to 72 hrs by trypan blue dye exclusion assay. It is filed as functional, cell-based.
For test [12], the system named is HT-29. In words: Antiproliferative activity against human HT-29 cells at 100 uM after 72 hrs by MTT assay. It is filed as functional.
The subject of test [13] is HT-29. In words: Antiproliferative activity against human HT-29 cells after 24 to 72 hrs by MTT assay. The test is classed as functional, cell-based.
Test [14] has as its system SH-SY5Y. In words: Antiproliferative activity against human SH-SY5Y cells at 1 to 100 uM by MTT assay. As to conditions: TDE = time-dependent effect. It is filed as functional, cell-based.
The subject of test [15] is SH-SY5Y. In words: Cytotoxicity against human SH-SY5Y cells assessed as cell death at 1 to 100 uM after 24 to 72 hrs by trypan blue dye exclusion assay. It is filed as functional, cell-based.
Test [16] relates to HepG2. Kind of test: Antiproliferative activity against human HepG2 cells at 1 to 100 uM after 24 to 72 hrs by cell counting assay. It is filed as functional, cell-based.
Test [17] concerns HepG2. Kind of test: Antiproliferative activity against human HepG2 cells at 1 to 100 uM by MTT assay. The test is classed as functional, cell-based. The note with it: TDE = time-dependent effect.
Test [18] concerns SH-SY5Y. Kind of test: Antiproliferative activity against human SH-SY5Y cells at 1 to 100 uM after 24 to 72 hrs by cell counting assay. The test is classed as functional, cell-based.
The test system of test [19] is HT-29. Kind of test: Antiproliferative activity against human HT-29 cells at 1 to 100 uM after 24 to 72 hrs by MTT assay. The test is classed as functional, cell-based.
Test [20] concerns SH-SY5Y. Kind of test: Antiproliferative activity against human SH-SY5Y cells at 1 to 100 uM after 24 to 72 hrs by MTT assay. It is filed as functional, cell-based.
The test system of test [21] is SH-SY5Y. In words: Cytotoxicity against human SH-SY5Y cells at 1 to 100 uM after 24 to 72 hrs by LDH release assay. It is filed as functional, cell-based.
Test [22] deals with HT-29. Kind of test: Cytotoxicity against human HT-29 cells at 1 to 100 uM after 24 to 72 hrs by LDH release assay. It is filed as functional, cell-based.
In test [23] the test system is HepG2. In words: Cytotoxicity against human HepG2 cells at 1 to 100 uM after 24 to 72 hrs by LDH release assay. The test is classed as functional, cell-based.
Test [24] concerns HepG2. Kind of test: Antiproliferative activity against human HepG2 cells at 1 to 100 uM after 24 to 72 hrs by MTT assay. The test is classed as functional, cell-based.
In test [25] the test system is HepG2. In words: Antiproliferative activity against human HepG2 cells at 100 uM after 72 hrs by MTT assay. The test is classed as functional, cell-based.
Test [26] relates to HT-29. Kind of test: Antiproliferative activity against human HT-29 cells at 50 to 100 uM after 48 to 72 hrs by MTT assay. It is filed as functional, cell-based.
Test [27] deals with SH-SY5Y. Kind of test: Antiproliferative activity against human SH-SY5Y cells at 100 uM after 72 hrs by MTT assay. The test is classed as functional, cell-based.

Molecules are shown by their SMILES. Calls of active or inactive are those of the source. The rule behind the calls is not given here.

Turning to `CN1O[C@@H]2COCC#Cc3ccccc3C#CCOC[C@@H]2[C@@H]1CO[Si](c1ccccc1)(c1ccccc1)C(C)(C)C` (racemic), the result in test [1], in test [2], in test [3], in test [4], in test [8] and in [9] was Active. Besides, the outcome in [10], in [11], in test [15], in test [16] and in test [18] was Active. Besides, the Activity entry in [5] is “tde”; in [6], “Dose-dependent effect”; in test [7], “Dose-dependent effect”; in test [12] it was 63%; in test [13] it was “Dose-dependent effect”; in test [14], “tde”. In addition, the Activity result in test [17] was “tde”.
`CN1O[C@@H](OCC#Cc2ccccc2C#CCO)C[C@@H]1CO[Si](c1ccccc1)(c1ccccc1)C(C)(C)C` (racemic): the outcome in [19], in test [4], in test [20], in [21], in [22] and in test [16] was inactive. The result in test [23], in [18] and in [24] was inactive.
With `CN1O[C@H](OCC#Cc2ccccc2C#CCO)C[C@@H]1CO` (racemic), the result in test [2], in test [4], in [8], in test [9], in [25] and in [10] was Active. For the same molecule, the outcome in test [11], in test [15], in [16], in test [26], in test [18] and in test [27] was Active. In addition, the Activity entry was “tde” in test [5]; “Dose-dependent effect” in test [6]; “Dose-dependent effect” in [7]; “Dose-dependent effect” in [13]; “tde” in [14]; “tde” in test [17].
Turning to `CN1O[C@H](OCC#Cc2ccccc2C#CCO)C[C@@H]1CO[Si](c1ccccc1)(c1ccccc1)C(C)(C)C` (racemic), the outcome in [19], in test [4], in test [20], in test [21], in test [22] and in [16] was inactive. Besides, the result in test [23], in test [18] and in test [24] was inactive.

The record behind these values is ChEMBL document CHEMBL3286345, “Synthesis and biological activity of new arenediyne-linked isoxazolidines” (2014).
